# How the values were obtained:
# hESC-derived CEC = assay: Effect of ROCK inhibitor on harvested and replated hESC-derived CEC; type: cell-based, human; design: key to O/N Confluent: +: “O/N confluent” indicates the confluence of cultured cells after overnight plating, reflecting the degree of cell survival and/or attachment.; −: “O/N confluent” indicates the confluence of cultured cells after overnight plating, reflecting the degree of cell survival and/or attachment; key to Morphology: a high quality polygonal/hexagonal cell shape (“++”); a polygonal/hexagonal shape (“+”); fibroblastic morphology (“−”); key to COL8A1 mRNA / AQP1 mRNA / SLC16A3 mRNA: expression (“+”); non-expression (“−”)
# Description: Expression of COL8A1 and SLC16A3 were elevated relative to hESC (FIGS. 17E-17F).
# The harvested cells were further examined for morphology, ability to reestablished a confluent culture, and retaining expression of the CEC markers COL8A1, AQP1, and SLC16A by qPCR. […] Moreover, Maintenance with media containing ROCK inhibitor can help the cells maintain a high quality CEC morphology after harvesting and replating.
# Rock inhibitor […] (Wako, cat #253-00513) was dissolved in distilled H2O to make a 10 mM stock solution and sterile filtered and aliquoted. Rock inhibitor aliquot was thawed and added fresh to media daily.
# Cornea cells were grown as described in Example 2 and harvested by treatment with 0.25% Trypsin as described in Example 4 and replated, with variations (i.e., inclusion of ROCK inhibitor and/or ASC as described below).
# After plating, cells were viewed to identify any morphological changes, and specifically whether they regained their polygonal/hexagonal shape, were a mixed population of polygonal and fibroblastic shape, or if they had turned fibroblastic.
# Media was changed daily with fresh Rock inhibitor except for “Pretreatment” and “D1” paradigms. After 1 week of culture, RNA was collected and analyzed by QPCR for changes in COL8A1, AQP1, and SLC16A3 mRNA levels. The efficacy of the Rock inhibitor for harvesting cells were tested between 1-20 microM.
# For the “Pretreatment” paradigm, CEC were produced as described in Example 2. The cornea media was removed and replaced with either 10 microM Rock or 10 microM Rock with 0.3 mM ASC-P2 (L ascorbic acid phosphate magnesium salt n-hydrate (Wako, cat #013-19641)) for 1 hour before harvesting. Cells were harvested using 0.25% trypsin as described above, however, no Rock inhibitor was added during harvesting.
# For the “Rock overnight” paradigm, CEC were produced as described in Example 2, harvested with 0.25% trypsin as described above, and then plated overnight in the presence of 10 microM Rock inhibitor. The following morning, the media was removed, and no further Rock inhibitor was added to the media.
# For the “Rock maintenance” paradigm, CEC were produced as described in Example 2, harvested using 0.25% trypsin as described above, and were maintained in Rock inhibitor added daily to fresh media.
# For the “D1” paradigm, CEC were produced as described in Example 2, harvested using 0.25% trypsin as described above, and cultured in presence of Rock inhibitor for 1 week. Cornea cells were then grown for additional week in the presence or absence of Rock inhibitor, to determine whether the ROCK inhibitor contributed to the maintenance of their morphology.
# CEC = assay: ANGPL7 included in culture media during CEC differentiation; type: cell-based, human; settings: in culture media in combination with DKK2 and PDGFB; methods of Example 1
# Description: Accordingly, ANGPL7 may optionally be used in the differentiation of corneal endothelial cells, for example by its inclusion in the culture during and/or after formation of corneal endothelial cells. ANGPL1-8 may be used in place of or in addition to ANGPL7.
# [1] = D1: factors in media for the first week after plating, thereafter omitted
molecule,measurement,setting,value
"C[C@@H](N)[C@H]1CC[C@H](C(=O)Nc2ccncc2)CC1 [Rock, (1R,4r)-4-((R)-1-aminoethyl)-N-(pyridin-4-yl)cyclohexanecarboxamide]",morphology of the hESC CEC trypsinized and replated,"hESC-derived CEC; 1 μM Rock inhibitor, FIG. 17A",variable
same,morphology of the hESC CEC trypsinized and replated,"hESC-derived CEC; 5 μM Rock inhibitor, FIG. 17B",somewhat more uniform
same,morphology of the hESC CEC trypsinized and replated,"hESC-derived CEC; 10 μM Rock inhibitor, FIG. 17C",uniform and polygonal/hexagonal
same,morphology of the hESC CEC trypsinized and replated,"hESC-derived CEC; 20 μM Rock inhibitor, FIG. 17D",uniform and polygonal/hexagonal
same,SLC16A3 expression compared to PD1T that has not been harvested,"hESC-derived CEC; 20 μM Rock inhibitor, QPCR",unchanged
same,SLC16A3 expression compared to PD1T that has not been harvested,"hESC-derived CEC; 1-10 μM Rock inhibitor, QPCR",upregulated
same,O/N Confluent,"hESC-derived CEC; 1 microM (maint.), in media each day after plating",+
same,AQP1 mRNA,"hESC-derived CEC; 1 microM (maint.), QPCR",+
same,COL8A1 mRNA,"hESC-derived CEC; 1 microM (maint.), QPCR",+
same,SLC16A3 mRNA,"hESC-derived CEC; 1 microM (maint.), QPCR",+
same,Morphology,"hESC-derived CEC; 1 microM (maint.), after 1 week in culture",+
same,O/N Confluent,hESC-derived CEC; 5 microM (maint.),+
same,AQP1 mRNA,"hESC-derived CEC; 5 microM (maint.), QPCR",+
same,COL8A1 mRNA,"hESC-derived CEC; 5 microM (maint.), QPCR",+
same,SLC16A3 mRNA,"hESC-derived CEC; 5 microM (maint.), QPCR",+
same,Morphology,"hESC-derived CEC; 5 microM (maint.), after 1 week in culture",++
same,O/N Confluent,"hESC-derived CEC; 10 microM (maint.), ASC 0.3 mM where added",+
same,AQP1 mRNA,"hESC-derived CEC; 10 microM (maint.), QPCR",+
same,COL8A1 mRNA,"hESC-derived CEC; 10 microM (maint.), QPCR",+
same,SLC16A3 mRNA,"hESC-derived CEC; 10 microM (maint.), QPCR",+
same,Morphology,"hESC-derived CEC; 10 microM (maint.), after 1 week in culture",++
same,O/N Confluent,"hESC-derived CEC; 20 microM (maint.), ASC 0.3 mM where added",+
same,AQP1 mRNA,"hESC-derived CEC; 20 microM (maint.), QPCR",+
same,COL8A1 mRNA,"hESC-derived CEC; 20 microM (maint.), QPCR",+
same,SLC16A3 mRNA,"hESC-derived CEC; 20 microM (maint.), QPCR",+
same,Morphology,"hESC-derived CEC; 20 microM (maint.), after 1 week in culture",++
same,Morphology,hESC-derived CEC; [1],−
same,O/N Confluent,hESC-derived CEC; [1],+
same,O/N Confluent,"hESC-derived CEC; Pretreat: 10 microM Rock 1 hour before harvesting with 0.25% trypsin, ASC 0.3 mM where added",−
same,Morphology,"hESC-derived CEC; Pretreat: 10 microM Rock 1 hour before harvesting, after 1 week in culture",−
same,AQP1 mRNA,"hESC-derived CEC; Pretreat, QPCR after 1 week",+
same,COL8A1 mRNA,"hESC-derived CEC; Pretreat, QPCR after 1 week",+
same,SLC16A3 mRNA,"hESC-derived CEC; Pretreat, QPCR after 1 week",+
same,COL8A1 expression compared to PD1T that has not been harvested,"hESC-derived CEC; QPCR, FIG. 17E",relatively unchanged
same,cell uniformity and polygonal/hexagonal morphology,"hESC-derived CEC; concentrations up to 20 micromolar, FIGS. 17A-17D",dose-responsive improvement
same,O/N Confluent,"hESC-derived CEC; o/n: plated overnight with 10 microM Rock after harvest, ASC 0.3 mM where added",+
same,Morphology,"hESC-derived CEC; o/n: plated overnight with 10 microM Rock, after 1 week in culture",+
same,AQP1 mRNA,"hESC-derived CEC; o/n, QPCR after 1 week",+
same,COL8A1 mRNA,"hESC-derived CEC; o/n, QPCR after 1 week",+
same,SLC16A3 mRNA,"hESC-derived CEC; o/n, QPCR after 1 week",+
"ANGPL7: Angiopoietin-Like Protein 7, included in the culture media with DKK2 and PDGFB (protein, UniProt O43827 27-346, looked up) Angiopoietin-related protein 7: QKLSKHKTPAQPQLKAANCCEEVKELKAQVANLSSLLSELNKKQERDWVSVVMQVMELESNSKRMESRLTDAESKYSEMNNQIDIMQLQAAQTVTQTSADAIYDCSSLYQKNYRISGVYKLPPDDFLGSPELEVFCDMETSGGGWTIIQRRKSGLVSFYRDWKQYKQGFGSIRGDFWLGNEHIHRLSRQPTRLRVEMEDWEGNLRYAEYSHFVLGNELNSYRLFLGNYTGNVGNDALQYHNNTAFSTKDKDNDNCLDKCAQLRKGGYWYNCCTDSNLNGVYYRLGEHNKHLDGITWYGWHGSTYSLKRVEMKIRPEDFKP",packing and morphology of the resulting CEC,CEC,tighter packing and more hexagonal morphology
